In patent US12673945B2, “3-((8-((1H-pyrazol-4-yl)amino)imidazo[1,2-a]pyridin-3-yl)ethinyl)-n-phenylbenzamide derivative, method for preparing same, and pharmaceutical composition containing same as active ingredient for prevention or treatment of cancer” (DAEGU-GYEONGBUK MEDICAL INNOVATION FOUNDATION, priority 2020, dated 2026):

Columns and labels:
[1] = oral pharmacokinetic test; type: in vivo, SD rats; conditions: SD, plasma; rat, 10 mg/Kg PO, vehicle A (NMP:PEG400=5:95)
Description: (§1) To evaluate the pharmacokinetic properties in vivo, oral pharmacokinetic test was performed with the compounds of Comparative Examples 1 and 4 and Examples 1 and 4 using mice and rats, and the PK parameters are shown in Table 10.
(§2) ICR mice (6-7 weeks old) and SD rats (6-7 weeks old) were used for the test. The fasted group was fasted about 16 hours before oral administration, and the fed group was fasted about 4 hours before oral administration. The test drug for oral administration was used by dissolving the drug in a vehicle at a concentration of 1 mg/mL for use, and blood samples were collected (time point: 0.25, 0.5, 1, 2, 4, 8, 12, 24, 32, n=3) from the heart (mouse, 500 μL/time point) or jugular vein (rat, 120 μL/time point). Blood was centrifuged at 12,000 G at 4° C. for 2 minutes to separate plasma, and stored at −80° C. until analysis. • Vehicle A (NMP:PEG400=5:95) • Vehicle B (0.5% methyl cellulose) 6-2. Sampling and Pretreatment
(§3) To 20 μl of plasma, 180 μl of acetonitrile (including internal standard) was added. The mixture was vortexed and centrifuged for 5 minutes at 15,000 rpm at 4° C. The supernatant obtained after centrifugation was analyzed by LC-MS/MS.
(§4) PK parameters were calculated with a non-compartmental analysis model using Phoenix WinNonlin 6.4 version (Pharsight, USA) program.

[2] = oral pharmacokinetic test; type: in vivo, ICR mice; conditions: ICR, mouse, plasma, 10 mg/kg, 10 mg/Kg PO
Description: as §1, §2, §3, §4

[3] = test system: Luc_Ba/F3 T315I-Bcr-Abl cell line; assay: in vivo pharmacological activity, blood cancer mouse model; design: species or system nude mice; conditions: for day after the administration on which all subjects died (FIG. 3): vehicle group: day 21
Description: After the mice were adapted to an animal facility for 1 week, the Luc_Ba/F3 T315I-Bcr-Abl cell line emitting luciferase was transplanted into the caudal vein at the density of 5×10^6/animal. Group separation was performed 3 days after the cell line transplantation. On the day of the group separation, 10 mice were randomly assigned to each group of 5 groups so that the luminescence values were equal after luminescence measurement using IVIS spectrum-CT optical imaging equipment.
In addition, the body weight and survival rate of each experimental group were monitored.
Statistical analysis was performed using GraphPad Prism 8, and the statistical significance of the survival rate was confirmed using unpaired t test and log-rank (Mantel-Cox) test.

[4] = vehicle B (0.5% methyl cellulose)

Row | Structure (SMILES) | AUC(0-t) [1] [ng·h/mL] | Cmax [1] [ng/mL] | half-life [1] [h] | AUC(0-t) ([2]; vehicle A (NMP:PEG400=5:95)) [ng·h/mL] | Cmax ([2]; vehicle A (NMP:PEG400=5:95)) [ng/mL] | half-life ([2]; vehicle A (NMP:PEG400=5:95)) [h] | AUC(0-t) [2, 4] [ng·h/mL] | Cmax [2, 4] [ng/mL] | half-life [2, 4] [h] | day after the administration on which all subjects died (FIG. 3) ([3]; 25 mg/kg oral once a day for 10 days) [days] | day after the administration on which all subjects died (FIG. 3) ([3]; 50 mg/kg oral once a day for 10 days) [days] | day after the administration on which all subjects died (FIG. 3) ([3]; 100 mg/kg oral once a day for 10 days) [days] | dose dependence of luminescence signal (FIG. 2) ([3]; 25, 50, 100 mg/kg oral once a day for 10 days) | luminescence values in optical images compared to the vehicle group (FIG. 1) ([3]; all treated groups, oral once a day for 10 days, images days 0, 4, 11, 18) | luminescence signals emitted from blood cancer cells compared to the vehicle group (FIG. 2) ([3]; day 18 after administration, 25, 50, 100 mg/kg oral)
1 | Cc1cn(-c2cc(NC(=O)c3cc(C#Cc4cnc5c(Nc6cnn(C)c6)cccn45)c(C)cc3F)cc(C(C)(C)C#N)c2)cn1 [Example 1, N-(3-(2-cyanopropane-2-yl)-5-(4-methyl-1H-imidazol-1-yl)phenyl)-2-fluoro-4-methyl-5-((8-((1-methyl-1H-pyrazol-4-yl)amino)imidazo[1,2-a]pyridin-3-yl)ethynyl)benzamide] | 15900 | 2000 | 3.3 | 138000 | 8570 | 2.5 | 80300 | 10000 | 2.4 | 31 | 32 | 35 | decreased dose-dependently | weak luminescence values | weak luminescence signals
2 | Cc1cn(-c2cc(NC(=O)c3cc(C#Cc4cnc5c(Nc6cnn(C)c6)cccn45)c(C)cc3F)cc(C(F)(F)F)c2)cn1 [Example 4, 2-fluoro-4-methyl-N-(3-(4-methyl-1H-imidazol-1-yl)-5-(trifluoromethyl)phenyl)-5-((8-((1-methyl-1H-pyrazol-4-yl)amino)imidazo[1,2-a]pyridin-3-yl)ethynyl)benzamide] |  |  |  |  |  |  | 30400 | 3360 | 2.1 |  |  |  |  |  | 
